Measurements from patent US6613718B2, “Aryl ether derivatives and processes for their preparation and herbicidal and desiccant compositions containing them” (Ishihara Sangyo Kaisha, Ltd., priority 2001, dated 2003).

Tests used:
Format in all cases: in vivo
Details in all cases: 14 days after application
[1] = test system: soybean (Glycine max L., var. Pella 86, SOY); assay: Post-emerge greenhouse screening, crop safety (phytotoxicity rating)
Text: (§1) A standard greenhouse herbicide activity screening system was used to evaluate the herbicidal efficacy and crop safety of these test compounds. Seven broadleaf weed species including redroot pigweed (Amaranthus retroflexus, AMARE), velvetleaf (Abutilon theophrasti, ABUTH), sicklepod (Cassia obtusifolia, CASOB), ivyleaf morningglory (Ipomoea hederacea, IPOHE), lambsquarters (Chenopodium album, CHEAL), common ragweed (Ambrosia artemisiifolia L., AMBEL), and cocklebur (Xanthium strumarium, XANST) were used as test species. Four grass weed species including green foxtail (Setaria viridis, SETVI), barnyardgrass (Echinochloa crus-galli, ECHCG), johnsongrass (Sorghum halepense, SORHA), and large crabgrass (Digitaria sanguinalis, DIGSA) were also used. In addition, three crop species, field corn (Zea mays L., var. Dekalb 535, CORN), soybean (Glycine max L., var. Pella 86, SOY), and upland rice (Oryza sp., var.Tebonnet, RICE) were included.
(§2) All plants were grown in 10 cm square plastic pots which were filled with a sandy loam soil mix. For pre-emerge tests, seeds were planted one day prior to application of the test compounds. For post-emerge tests, seeds were planted 8-21 days prior to the test to allow emergence and good foliage development prior to application of the test substances. At the time of the post-emerge application, plants of all species were usually at the 2-3 leaf stage of development.
(§3) All test compounds were dissolved in acetone and applied to the test units in a volume of 187 1/ha. Test materials were applied at rates ranging from 15 g ai/ha to 1000 g ai/ha using a track sprayer equipped with a TJ8001E even flow flat fan spray nozzle. Plants were arranged on a shelf so that the top of the canopy (post-emerge) or top of the soil surface (pre-emerge) was 40-45 cm below the nozzle. Pressurized air was used to force the test solution through the nozzle as it was mechanically advanced (via electrically driven chain drive) over the top of all test plants/pots. This application simulates a typical commercial field herbicide application.
(§4) In the post-emerge test, a commercial non-ionic surfactant was also included (0.25% v/v) to enhance wetting of the leaf surfaces of target plants. Immediately after application, test units of the pre-emerge applications were watered at the soil surface to incorporate the test materials. Subsequently, these test units were bottom-watered. Post-emerge test units were always bottom-watered.
(§5) At 14 days after application of the test materials, phytotoxicity ratings were recorded. A rating scale of 0-100 was used as previously described in Research Methods in Weed Science, 2nd edition, B. Truelove, Ed., Southern Weed Science Society, Auburn University, Auburn, Ala., 1977. Briefly, “0” corresponds to no damage and “100” corresponds to complete death of all plants in the test unit. This scale was used both to determine efficacy against weed species and damage to crop species. Herbicide activity data for various compounds of this invention, which are shown by compound No. in Tables I-VI, are shown in Tables VIII-IX.

[2] = test system: upland rice (Oryza sp., var.Tebonnet, RICE); assay: as above
Text: as §1, §2, §3, §4, §5

[3] = test system: lambsquarters (Chenopodium album, CHEAL); assay: Post-emerge greenhouse herbicide activity screening, phytotoxicity rating
Text: as §1, §2, §3, §4, §5

[4] = test system: ivyleaf morningglory (Ipomoea hederacea, IPOHE); assay: as above
Text: as §1, §2, §3, §4, §5

[5] = test system: johnsongrass (Sorghum halepense, SORHA); assay: as above
Text: as §1, §2, §3, §4, §5

[6] = test system: sicklepod (Cassia obtusifolia, CASOB); assay: as above
Text: as §1, §2, §3, §4, §5

[7] = test system: large crabgrass (Digitaria sanguinalis, DIGSA); assay: as above
Text: as §1, §2, §3, §4, §5

[8] = test system: green foxtail (Setaria viridis, SETVI); assay: as above
Text: as §1, §2, §3, §4, §5

[9] = test system: barnyardgrass (Echinochloa crus-galli, ECHCG); assay: as above
Text: as §1, §2, §3, §4, §5

[10] = test system: redroot pigweed (Amaranthus retroflexus, AMARE); assay: as above
Text: as §1, §2, §3, §4, §5

[11] = test system: velvetleaf (Abutilon theophrasti, ABUTH); assay: as above
Text: as §1, §2, §3, §4, §5

[12] = test system: common ragweed (Ambrosia artemisiifolia L., AMBEL); assay: as above
Text: as §1, §2, §3, §4, §5

[13] = test system: field corn (Zea mays L., var. Dekalb 535, CORN); assay: Pre-emerge greenhouse screening, crop safety (phytotoxicity rating)
Text: as §1, §2, §3, §4, §5

[14] = test system: soybean (Glycine max L., var. Pella 86, SOY); assay: as above
Text: as §1, §2, §3, §4, §5

[15] = test system: upland rice (Oryza sp., var.Tebonnet, RICE); assay: as above
Text: as §1, §2, §3, §4, §5

[16] = test system: lambsquarters (Chenopodium album, CHEAL); assay: Pre-emerge greenhouse herbicide activity screening, phytotoxicity rating
Text: as §1, §2, §3, §4, §5

[17] = test system: ivyleaf morningglory (Ipomoea hederacea, IPOHE); assay: as above
Text: as §1, §2, §3, §4, §5

[18] = test system: johnsongrass (Sorghum halepense, SORHA); assay: as above
Text: as §1, §2, §3, §4, §5

[19] = test system: sicklepod (Cassia obtusifolia, CASOB); assay: as above
Text: as §1, §2, §3, §4, §5

[20] = test system: large crabgrass (Digitaria sanguinalis, DIGSA); assay: as above
Text: as §1, §2, §3, §4, §5

[21] = test system: green foxtail (Setaria viridis, SETVI); assay: as above
Text: as §1, §2, §3, §4, §5

[22] = test system: barnyardgrass (Echinochloa crus-galli, ECHCG); assay: as above
Text: as §1, §2, §3, §4, §5

[23] = test system: redroot pigweed (Amaranthus retroflexus, AMARE); assay: as above
Text: as §1, §2, §3, §4, §5

[24] = test system: velvetleaf (Abutilon theophrasti, ABUTH); assay: as above
Text: as §1, §2, §3, §4, §5

[25] = test system: common ragweed (Ambrosia artemisiifolia L., AMBEL); assay: as above
Text: as §1, §2, §3, §4, §5

[26] = test system: field corn (Zea mays L., var. Dekalb 535, CORN); assay: Post-emerge greenhouse screening, crop safety / corn selectivity (phytotoxicity rating)
Text: as §1, §2, §3, §4, §5

Cn1c(C(F)(F)F)cc(=O)n(-c2cc(Oc3ncccc3[N+](=O)[O-])c(Cl)cc2F)c1=S [Compound 1-9]
SOY crop damage, phytotoxicity rating (0-100 scale) ([1]; 125 g ai/ha): 55
SOY crop damage, phytotoxicity rating (0-100 scale) ([1]; 250 g ai/ha): 80
RICE crop damage, phytotoxicity rating (0-100 scale) ([2]; 125 g ai/ha): 0
RICE crop damage, phytotoxicity rating (0-100 scale) ([2]; 250 g ai/ha): 0
CHEAL phytotoxicity rating (0-100 scale) ([3]; 125 g ai/ha): 100
CHEAL phytotoxicity rating (0-100 scale) ([3]; 250 g ai/ha): 100
IPOHE phytotoxicity rating (0-100 scale) ([4]; 125 g ai/ha): 100
IPOHE phytotoxicity rating (0-100 scale) ([4]; 250 g ai/ha): 100
SORHA phytotoxicity rating (0-100 scale) ([5]; 125 g ai/ha): 50
SORHA phytotoxicity rating (0-100 scale) ([5]; 250 g ai/ha): 50
CASOB phytotoxicity rating (0-100 scale) ([6]; 125 g ai/ha): 50
CASOB phytotoxicity rating (0-100 scale) ([6]; 250 g ai/ha): 65
DIGSA phytotoxicity rating (0-100 scale) ([7]; 125 g ai/ha): 50
DIGSA phytotoxicity rating (0-100 scale) ([7]; 250 g ai/ha): 60
SETVI phytotoxicity rating (0-100 scale) ([8]; 125 g ai/ha): 60
SETVI phytotoxicity rating (0-100 scale) ([8]; 250 g ai/ha): 70
ECHCG phytotoxicity rating (0-100 scale) ([9]; 125 g ai/ha): 50
ECHCG phytotoxicity rating (0-100 scale) ([9]; 250 g ai/ha): 65
AMARE phytotoxicity rating (0-100 scale) ([10]; 125 g ai/ha): 100
AMARE phytotoxicity rating (0-100 scale) ([10]; 250 g ai/ha): 100
ABUTH phytotoxicity rating (0-100 scale) ([11]; 125 g ai/ha): 100
ABUTH phytotoxicity rating (0-100 scale) ([11]; 250 g ai/ha): 100
AMBEL phytotoxicity rating (0-100 scale) ([12]; 125 g ai/ha): 70
AMBEL phytotoxicity rating (0-100 scale) ([12]; 250 g ai/ha): 70
CORN crop damage, phytotoxicity rating (0-100 scale) ([13]; 125 g ai/ha): 8
CORN crop damage, phytotoxicity rating (0-100 scale) ([13]; 250 g ai/ha): 8
SOY crop damage, phytotoxicity rating (0-100 scale) ([14]; 125 g ai/ha): 50
SOY crop damage, phytotoxicity rating (0-100 scale) ([14]; 250 g ai/ha): 50
RICE crop damage, phytotoxicity rating (0-100 scale) ([15]; 125 g ai/ha): 35
RICE crop damage, phytotoxicity rating (0-100 scale) ([15]; 250 g ai/ha): 35
CHEAL phytotoxicity rating (0-100 scale) ([16]; 125 g ai/ha): 100
CHEAL phytotoxicity rating (0-100 scale) ([16]; 250 g ai/ha): 100
IPOHE phytotoxicity rating (0-100 scale) ([17]; 125 g ai/ha): 100
IPOHE phytotoxicity rating (0-100 scale) ([17]; 250 g ai/ha): 100
SORHA phytotoxicity rating (0-100 scale) ([18]; 125 g ai/ha): 95
SORHA phytotoxicity rating (0-100 scale) ([18]; 250 g ai/ha): 99
CASOB phytotoxicity rating (0-100 scale) ([19]; 125 g ai/ha): 70
CASOB phytotoxicity rating (0-100 scale) ([19]; 250 g ai/ha): 99
DIGSA phytotoxicity rating (0-100 scale) ([20]; 125 g ai/ha): 98
DIGSA phytotoxicity rating (0-100 scale) ([20]; 250 g ai/ha): 99
SETVI phytotoxicity rating (0-100 scale) ([21]; 125 g ai/ha): 100
SETVI phytotoxicity rating (0-100 scale) ([21]; 250 g ai/ha): 100
ECHCG phytotoxicity rating (0-100 scale) ([22]; 125 g ai/ha): 95
ECHCG phytotoxicity rating (0-100 scale) ([22]; 250 g ai/ha): 99
AMARE phytotoxicity rating (0-100 scale) ([23]; 125 g ai/ha): 100
AMARE phytotoxicity rating (0-100 scale) ([23]; 250 g ai/ha): 100
ABUTH phytotoxicity rating (0-100 scale) ([24]; 125 g ai/ha): 100
ABUTH phytotoxicity rating (0-100 scale) ([24]; 250 g ai/ha): 100
AMBEL phytotoxicity rating (0-100 scale) ([25]; 125 g ai/ha): 99
AMBEL phytotoxicity rating (0-100 scale) ([25]; 250 g ai/ha): 100
CORN crop damage, phytotoxicity rating (0-100 scale) ([26]; 125 g ai/ha): 0
CORN crop damage, phytotoxicity rating (0-100 scale) ([26]; 250 g ai/ha): 3
